Reference: US11629146B2, “Substituted [1,2,4]triazolo[4,3-a]pyrazines as modulators of sodium channel activity” (Praxis Precision Medicines, Inc., priority 2016, dated 2023)
Read-outs that look alike come from different tables or passages of the source.

Experiments:
human NaV1.6 (hNaV1.6) = human NaV1.6 (hNaV1.6) (Homo sapiens (Human), UniProt Q9UQD0); experiment: INaL inhibition at hNaV1.6, PatchXpress electrophysiology; type: cell-based
Method: Functional characterization of exemplary compounds to modulate INaL expressed by the Nay 1.6 voltage-gated sodium channel was accomplished using the PatchXpress™ high throughput electrophysiology platform (Molecular Devices, Sunnyvale, Calif.). HEK-293 cells expressing recombinant, human NaV1.6 (hNaV1.6) were grown in DMEM/high-glucose Dulbecco's modified, 10% FBS, 2 mM sodium pyruvate, 10 mM HEPES and 400 μg/mL G418. Cells were grown to 50%-80% confluency prior to harvesting. […] The onboard liquid handling facility of the PatchXpress was used for dispensing cells and applying test compounds. Nay late currents were evoked by the application of 300 nM ATX-II. […] INaL amplitude and stability were determined by analyzing the mean current amplitude over the final 20 ms of the test pulse. […] Percent steady-state inhibition of INaL was calculated as: [(INaL_compound)/(INaL_control)]*100, where INaL_compound and INaL_control represent INaL recorded in the presence or absence of compound, respectively.

[1] = PK rat clearance experiment; type: in vivo; details: male Sprague-Dawley rats, single intravenous bolus 0.5 mg/kg, plasma
Method: The IV dosing solution was prepared freshly on the dosing day. Test article (0.5 mg/kg) was prepared in a vehicle, for example, consisting of 5% DMSO/5% solutol/90% water. The concentrations of test article in all dosing solutions were determined by HPLC/UV. Three male Sprague-Dawley rats were used in this study. The animals were confirmed healthy before being assigned to the study. Each animal was given a unique identification number which was marked on the tail or the ear, and written on the cage card. All animals were fasted overnight before dosing and the food was returned at 4 hours post dosing. Water was provided to all animals ad libitum during the fasting period. Animals were weighed prior to dose administration on the day of dosing for calculating the actual dose volume. The body weights were in the range from 212 g to 223 g for males. All animals received test article by single intravenous bolus administration at 0.5 mg/kg. Approximately 0.2 mL blood was collected at each time point via jugular vein from each study animal. […] All blood samples were transferred into pre-labeled plastic micro centrifuge tubes and mixed with the pre-loaded anti-coagulant K2EDTA (5 μL, 0.5 M). Plasma samples were then prepared by centrifuging the blood samples. All plasma samples were then quickly frozen over dry ice and kept at −60° C. or lower until LC/MS/MS analysis. The concentrations of test article in plasma were determined by using a quantitative bioanalytical LC/MS/MS method. The lower limit of quantitation (LLOQ) for test article in plasma was 1 ng/mL, and the upper limit of quantitation (ULOQ) in plasma was 3000 ng/mL. The plasma concentration of test article in rats was subjected to a non compartmental pharmacokinetic analysis by using the Phoenix WinNonlin software (version 6.3, Pharsight, Mountain View, Calif.). The linear/log trapezoidal rule was applied in obtaining the PK parameters.

[2] = HEK293, 1 μM, HEK-293 cells expressing hNaV1.6, late current evoked by 300 nM ATX-II, read-out: INaL v1.6 (1 μM, % Inhibition)
[3] = HEK293, read-out: INaL v1.6 (1 μM, % Inhibition)
[4] = 1 μM, HEK-293 cells expressing hNaV1.6, late current evoked by 300 nM ATX-II

Chain of human NaV1.6 (hNaV1.6) (Q9UQD0 whole entry): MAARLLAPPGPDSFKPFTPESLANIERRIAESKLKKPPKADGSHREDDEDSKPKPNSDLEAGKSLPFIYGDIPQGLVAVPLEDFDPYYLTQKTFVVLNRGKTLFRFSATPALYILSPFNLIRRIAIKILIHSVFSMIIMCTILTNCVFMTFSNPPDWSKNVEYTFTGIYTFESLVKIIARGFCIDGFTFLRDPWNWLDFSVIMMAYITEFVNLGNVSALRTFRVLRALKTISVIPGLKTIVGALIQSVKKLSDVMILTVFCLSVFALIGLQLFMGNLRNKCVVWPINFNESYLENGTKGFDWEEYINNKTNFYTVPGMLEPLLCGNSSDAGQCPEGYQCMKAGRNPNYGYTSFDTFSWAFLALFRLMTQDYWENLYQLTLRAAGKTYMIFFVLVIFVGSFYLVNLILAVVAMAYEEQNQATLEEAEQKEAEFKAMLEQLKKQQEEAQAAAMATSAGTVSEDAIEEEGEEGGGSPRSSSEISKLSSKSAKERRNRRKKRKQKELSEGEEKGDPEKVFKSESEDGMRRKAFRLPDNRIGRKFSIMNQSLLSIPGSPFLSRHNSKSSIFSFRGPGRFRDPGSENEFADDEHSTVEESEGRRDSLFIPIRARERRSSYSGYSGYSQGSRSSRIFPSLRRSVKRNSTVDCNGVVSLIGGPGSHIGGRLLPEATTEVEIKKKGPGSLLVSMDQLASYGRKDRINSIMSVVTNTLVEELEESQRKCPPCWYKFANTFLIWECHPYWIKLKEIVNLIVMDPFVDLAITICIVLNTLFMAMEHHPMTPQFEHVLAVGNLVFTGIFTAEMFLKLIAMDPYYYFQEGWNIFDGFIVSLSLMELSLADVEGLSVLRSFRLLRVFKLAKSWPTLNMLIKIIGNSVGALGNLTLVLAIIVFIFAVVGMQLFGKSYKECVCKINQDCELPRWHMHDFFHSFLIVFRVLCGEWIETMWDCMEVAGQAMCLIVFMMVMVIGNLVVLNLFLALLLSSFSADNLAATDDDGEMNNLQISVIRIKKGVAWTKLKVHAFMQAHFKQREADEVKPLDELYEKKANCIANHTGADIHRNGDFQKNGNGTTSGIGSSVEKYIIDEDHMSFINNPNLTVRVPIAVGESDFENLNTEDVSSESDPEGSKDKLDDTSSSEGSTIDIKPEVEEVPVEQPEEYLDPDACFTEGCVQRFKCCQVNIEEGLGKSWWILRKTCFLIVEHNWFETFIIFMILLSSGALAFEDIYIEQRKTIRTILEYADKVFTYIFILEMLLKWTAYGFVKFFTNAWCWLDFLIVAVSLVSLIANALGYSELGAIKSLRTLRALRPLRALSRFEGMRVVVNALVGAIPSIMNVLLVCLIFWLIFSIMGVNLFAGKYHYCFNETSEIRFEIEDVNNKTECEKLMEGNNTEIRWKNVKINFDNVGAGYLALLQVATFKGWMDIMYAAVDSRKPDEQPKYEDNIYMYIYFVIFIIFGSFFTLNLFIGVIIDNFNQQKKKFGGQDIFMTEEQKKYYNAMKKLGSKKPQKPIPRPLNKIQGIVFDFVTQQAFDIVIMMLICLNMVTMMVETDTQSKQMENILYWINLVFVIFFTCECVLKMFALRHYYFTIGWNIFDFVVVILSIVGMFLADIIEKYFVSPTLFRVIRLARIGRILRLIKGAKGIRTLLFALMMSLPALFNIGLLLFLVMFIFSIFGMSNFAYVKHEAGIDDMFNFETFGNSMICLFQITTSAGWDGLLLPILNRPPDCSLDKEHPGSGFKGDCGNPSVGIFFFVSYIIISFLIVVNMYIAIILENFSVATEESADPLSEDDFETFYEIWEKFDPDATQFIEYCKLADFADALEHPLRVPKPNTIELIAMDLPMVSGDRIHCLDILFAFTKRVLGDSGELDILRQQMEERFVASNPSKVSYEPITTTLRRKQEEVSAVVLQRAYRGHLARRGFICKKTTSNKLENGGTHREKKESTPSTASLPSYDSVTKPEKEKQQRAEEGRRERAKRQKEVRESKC

Row | Structure (SMILES) | inhibition at 1 µM (human NaV1.6 (hNaV1.6); [2]) [%] | further results
1 | OCc1ccc(-c2ccc3nnc(C(F)F)n3n2)cc1 [Compound 169, [4-[3-(difluoromethyl)-[1,2,4]triazolo[4,3-b]pyridazin-6-yl]phenyl]methanol] | < 30 | –
2 | COCc1cc(-c2ccc3nnc(C(F)F)n3n2)ccc1C(F)(F)F [Compound 159] | 30 to 70 | –
3 | FC(F)(F)Oc1ccc(-c2cn3c(C(F)(F)F)nnc3cn2)cc1 [Compound 56] | > 70 | –
4 | COc1cc(OC(F)(F)F)ccc1-c1cn2c(C(F)(F)F)nnc2cn1 [Compound 70] | 30 to 70 | –
5 | FC(F)(F)Oc1ccc(-c2cn3c([C@@H]4CCOC4)nnc3cn2)cc1 [Compound 161, 3-[(3S)-tetrahydrofuran-3-yl]-6-[4-(trifluoromethoxy)phenyl]-[1,2,4]triazolo[4,3-a]pyrazine] | < 30 | –
6 | FC(F)(F)OCc1ccc(-c2cn3c(C(F)(F)F)nnc3cn2)cc1 [Compound 149] | > 70 | –
7 | FC(F)(F)Oc1ccc(-c2ccc3nnc(C4(F)CC4)n3n2)cc1 [Compound 61] | > 70 | clearance [1]: 1.6 mL/min/kg; half-life [1]: 15.2 h
8 | CC(C)(C#N)c1ccc(-c2cn3c(C(F)F)nnc3cn2)cc1 [Compound 57] | – | inhibition at 1 µM (human NaV1.6 (hNaV1.6); [3]): < 30%
9 | Cc1cc(-c2ccc3nnc(C(F)(F)F)n3n2)ccc1C(F)(F)F [Compound 98] | > 70 | –
10 | FC(F)c1nnc2cnc(-c3ccc([C@@H]4CC4(F)F)cc3)cn12 [Compound 167, 6-[4-[(1S)-2,2-difluorocyclopropyl]phenyl]-3-(difluoromethyl)-[1,2,4]triazolo[4,3-a]pyrazine] | 30 to 70 | –
11 | FC(F)c1nnc2ccc(-c3ccc([C@@H]4CC4(F)F)cc3)nn12 [Compound 165, 6-[4-[(1S)-2,2-difluorocyclopropyl]phenyl]-3-(difluoromethyl)-[1,2,4]triazolo[4,3-b]pyridazine] | > 70 | –
12 | Fc1cc2nnc(C(F)(F)F)n2nc1-c1ccc(OC(F)(F)F)cc1 [Compound 187] | > 70 | –
13 | COCc1cc(OC(F)(F)F)ccc1-c1cn2c(C(F)(F)F)nnc2cn1 [Compound 66] | – | INaL v1.6 (1 μM, % Inhibition) (human NaV1.6 (hNaV1.6); [4]): C (inhibition of greater than 70%)
14 | FC1(F)CC(Oc2ccc(-c3cn4c(C(F)(F)F)nnc4cn3)cn2)C1 [Compound 86] | 30 to 70 | –
15 | Fc1cc(-c2ccc3nnc(C(F)(F)F)n3n2)cnc1OC1CC(F)(F)C1 [Compound 93] | > 70 | –
16 | FC(F)(F)Oc1ccc(-c2cc(Cl)c3nnc(C(F)(F)F)n3n2)cc1 [Compound 189] | < 30 | –
17 | COc1cc(OC(F)(F)F)ccc1-c1ccc2nnc(C(F)(F)F)n2n1 [Compound 5] | > 70 | –
18 | O=C(O)c1cc(-c2ccc(OC(F)(F)F)cc2)nn2c(C(F)(F)F)nnc12 [Compound 181, 6-[4-(trifluoromethoxy)phenyl]-3-(trifluoromethyl)-[1,2,4]triazolo[4,3-b]pyridazine-8-carboxylic acid] | < 30 | –
19 | COc1cc(C(F)(F)F)ccc1-c1ccc2nnc(C(F)(F)F)n2n1 [Compound 89] | > 70 | –
20 | Cc1cc2nnc(C(F)(F)F)n2nc1-c1ccc(OC(F)(F)F)cc1 [Compound 140, 7-methyl-6-[4-(trifluoromethoxy)phenyl]-3-(trifluoromethyl)-[1,2,4]triazolo[4,3-b]pyridazine] | 30 to 70 | –
21 | COCc1cc(-c2ccc3nnc(C(F)(F)F)n3n2)ccc1C(F)(F)F [Compound 158] | 30 to 70 | –

Row | Structure (SMILES) | inhibition at 1 µM (human NaV1.6 (hNaV1.6); [2]) [%] | further results
22 | COCc1cc(-c2cn3c(C(F)F)nnc3cn2)ccc1OC(F)(F)F [Compound 144] | < 30 | –
23 | OCc1ccc(-c2cn3c(C(F)(F)F)nnc3cn2)cc1 [Compound 196, [4-[3-(trifluoromethyl)-[1,2,4]triazolo[4,3-a]pyrazin-6-yl]phenyl]methanol] | < 30 | –
24 | Cc1ccc(OC(F)(F)F)cc1-c1ccc2nnc(C(F)(F)F)n2n1 [Compound 36] | < 30 | –
25 | CC(C)(O)c1ccc(-c2ccc3nnc(C(F)(F)F)n3n2)cc1 [Compound 102] | < 30 | –
26 | FC(F)(F)Oc1ccc(-c2ccc3nnc(CC4CCCOC4)n3n2)cc1 (stereo not drawn) [Compound 38] | – | inhibition at 1 µM (human NaV1.6 (hNaV1.6); [3]): 30 to 70%
27 | FC(F)(F)Oc1ccc(-c2ccc3nnc(C(F)(F)F)n3n2)c(C2COC2)c1 [Compound 32] | 30 to 70 | –
28 | COCc1cc(-c2ccc3nnc(C(F)F)n3n2)ccc1OC(F)(F)F [Compound 146] | 30 to 70 | –
29 | CC(Oc1ncc(-c2ccc3nnc(C(F)(F)F)n3n2)cc1F)C(F)(F)F (stereo not drawn) [Compound 128] | > 70 | –
30 | COc1nnc2cnc(-c3ccc(OC(F)(F)F)cc3)cn12 [Compound 148] | < 30 | –
31 | Cc1cc(-c2ccc(OC(F)(F)F)cc2)nn2c(C(F)(F)F)nnc12 [Compound 139, 8-methyl-6-[4-(trifluoromethoxy)phenyl]-3-(trifluoromethyl)-[1,2,4]triazolo[4,3-b]pyridazine] | < 30 | –
32 | COC(F)(F)c1nnc2cnc(-c3ccc(OC(F)(F)F)cc3)cn12 [Compound 97] | > 70 | –
33 | FC(F)(F)Oc1ccc(-c2ccc3nnc(C4CC4(F)F)n3n2)cc1 (single isomer, unassigned) [Compound 46] | – | INaL v1.6 (1 μM, % Inhibition) (human NaV1.6 (hNaV1.6); [4]): C (inhibition of greater than 70%)
34 | Fc1cc(C(F)(F)F)ccc1-c1cn2c(C(F)(F)F)nnc2cn1 [Compound 76] | 30 to 70 | –
35 | COCc1ccc(-c2cn3c(C(F)F)nnc3cn2)cc1 [Compound 170] | < 30 | –
36 | Fc1cc(-c2cn3c(C(F)(F)F)nnc3cn2)cnc1OC1CC(F)(F)C1 [Compound 84] | – | INaL v1.6 (1 μM, % Inhibition) (human NaV1.6 (hNaV1.6); [4]): C (inhibition of greater than 70%)
37 | FC1(F)CC(c2nnc3cnc(-c4ccc(OC(F)(F)F)cc4)cn23)C1 [Compound 82] | 30 to 70 | –
38 | Fc1cc(-c2ccc3nnc(C(F)(F)F)n3n2)cnc1C(F)(F)F [Compound 99] | < 30 | –
39 | N#CC1(c2ccc(-c3cn4c(C(F)(F)F)nnc4cn3)cc2)CCC1 [Compound 71] | 30 to 70 | –
40 | FC(F)(F)c1nnc2ccc(-c3ccc(C4CC4(F)F)cc3)nn12 (stereo not drawn) [Compound 120, 6-[4-(2,2-difluorocyclopropyl)phenyl]-3-(trifluoromethyl)-[1,2,4]triazolo[4,3-b]pyridazine] | – | inhibition at 1 µM (human NaV1.6 (hNaV1.6); [3]): > 70%
41 | Fc1cc(-c2cn3c(C(F)(F)F)nnc3cn2)ccc1OC1CC(F)(F)C1 [Compound 194] | 30 to 70 | –

Second part, led by results:

Row | inhibition at 1 µM (human NaV1.6 (hNaV1.6); [2]) [%] | Structure (SMILES) | further results
42 | 30 to 70 | FC(F)(F)c1ccc(-c2cn3c(C(F)(F)F)nnc3cn2)cc1 [Compound 62] | –
43 | < 30 | COCc1ccc(-c2ccc3nnc(C(F)F)n3n2)cc1 [Compound 171] | –
44 | < 30 | CCOc1ccc(-c2cn3c(C(F)(F)F)nnc3cn2)cc1 [Compound 74] | –
45 | < 30 | CC(=O)Nc1cc2nnc(C(F)(F)F)n2nc1-c1ccc(OC(F)(F)F)cc1 [Compound 191] | –
46 | > 70 | COCc1cc(OC(F)(F)F)ccc1-c1cn2c(C(F)F)nnc2cn1 [Compound 142] | –
47 | > 70 | COc1cc(OC(F)(F)F)ccc1-c1ccc2nnc(C(F)(F)OC)n2n1 [Compound 33] | –
48 | 30 to 70 | Fc1cc(-c2ccc3nnc(C4CC(F)(F)C4)n3n2)cnc1OCC(F)(F)F [Compound 83] | –
49 | 30 to 70 | FC(F)(F)COc1ccc(-c2cn3c(C(F)(F)F)nnc3cn2)cn1 [Compound 179] | –
50 | 30 to 70 | FC(F)c1nnc2cnc(-c3ccc([C@H]4CC4(F)F)cc3)cn12 [Compound 166, 6-[4-[(1R)-2,2-difluorocyclopropyl]phenyl]-3-(difluoromethyl)-[1,2,4]triazolo[4,3-a]pyrazine] | –
51 | < 30 | COCc1ccc(-c2cn3c(C(F)(F)F)nnc3cn2)cc1 [Compound 180] | –
52 | > 70 | COc1cc(OC(F)(F)F)ccc1-c1ccc2nnc(C(F)(F)OCC3CC3)n2n1 [Compound 34] | –
53 | > 70 | Fc1ccc(-c2nnc3cnc(-c4cnc(OCC(F)(F)F)c(F)c4)cn23)cc1 [Compound 175] | –
54 | > 70 | FC(F)(F)Oc1ccc(-c2nn3c(C(F)(F)F)nnc3cc2Cl)cc1 [Compound 162, 7-chloro-6-[4-(trifluoromethoxy)phenyl]-3-(trifluoromethyl)-[1,2,4]triazolo[4,3-b]pyridazine] | –
55 | < 30 | COCc1cc(-c2ccc(OC(F)(F)F)cc2)nn2c(C(F)(F)F)nnc12 [Compound 163] | –
56 | 30 to 70 | Cc1nc(-c2ccc(OC(F)(F)F)cc2)cn2c(C(F)(F)F)nnc12 [Compound 168, 8-methyl-6-[4-(trifluoromethoxy)phenyl]-3-(trifluoromethyl)-[1.2.4]triazolo[4,3-a]pyrazine] | –
57 | 30 to 70 | Cc1cc(OC2CC(F)(F)C2)ccc1-c1ccc2nnc(C(F)(F)F)n2n1 [Compound 94] | –
58 | 30 to 70 | FC(F)c1nnc2cnc(-c3ccc(COC(F)(F)F)cc3)cn12 [Compound 197] | –
59 | < 30 | CC(C)OCc1ccc(-c2cn3c(C(F)(F)F)nnc3cn2)cc1 [Compound 195] | –
60 | 30 to 70 | Fc1cc(-c2ccc3nnc(C4CC4)n3n2)cnc1OCC(F)(F)F [Compound 103] | –
61 | 30 to 70 | FC(F)c1nnc2cnc(-c3ccc(OC4CC(F)(F)C4)cc3)cn12 [Compound 178] | –
